From ChEMBL document CHEMBL4627246, “Pyroglutamide-Based P2X7 Receptor Antagonists Targeting Inflammatory Bowel Disease” (J Med Chem, 2020)

How the values were obtained:
Assay type in all cases: cell-based
CCRF-CEM = experiment: Cytotoxicity against human CCRF-CEM cells assessed as effect on cell growth at 10 uM incubated for 48 hrs by sulforhodamine B assay
SNB-75 = experiment: Cytotoxicity against human SNB75 cells assessed as effect on cell growth at 10 uM incubated for 48 hrs by sulforhodamine B assay; conditions: snb-75, 48 h
NCI-H322M = experiment: Cytotoxicity against human NCI-H322M cells assessed as effect on cell growth at 10 uM incubated for 48 hrs by sulforhodamine B assay
HL-60(TB) = experiment: Cytotoxicity against human HL-60(TB) cells assessed as effect on cell growth at 10 uM incubated for 48 hrs by sulforhodamine B assay
SF-268 = experiment: Cytotoxicity against human SF268 cells assessed as effect on cell growth at 10 uM incubated for 48 hrs by sulforhodamine B assay; conditions: sf-268, 48 h
SW-620 = experiment: Cytotoxicity against human SW620 cells assessed as effect on cell growth at 10 uM incubated for 48 hrs by sulforhodamine B assay; conditions: sw-620, 48 h
U-251 = experiment: Cytotoxicity against human U251 cells assessed as effect on cell growth at 10 uM incubated for 48 hrs by sulforhodamine B assay; conditions: u-251, 48 h
MOLT-4 = experiment: Cytotoxicity against human MOLT4 cells assessed as effect on cell growth at 10 uM incubated for 48 hrs by sulforhodamine B assay; conditions: molt-4, 48 h
CAKI-1 = experiment: Growth inhibition of human Caki1 cells assessed as growth percentage at 10 uM incubated for 48 hrs by sulforhodamine B assay; conditions: caki-1, 48 h
PC-3 = experiment: Cytotoxicity against human PC3 cells assessed as effect on cell growth at 10 uM incubated for 48 hrs by sulforhodamine B assay; conditions: pc-3, 48 h
RPMI-8226 = experiment: Cytotoxicity against human RPMI8226 cells assessed as effect on cell growth at 10 uM incubated for 48 hrs by sulforhodamine B assay; conditions: rpmi-8226, 48 h
MDA-MB-231 = experiment: Cytotoxicity against human MDA-MB-231 cells assessed as effect on cell growth at 10 uM incubated for 48 hrs by sulforhodamine B assay; conditions: mda-mb-231, 48 h
HOP-92 = experiment: Cytotoxicity against human HOP92 cells assessed as effect on cell growth at 10 uM incubated for 48 hrs by sulforhodamine B assay; conditions: hop-92, 48 h
Malme-3M = experiment: Cytotoxicity against human MALME-3M cells assessed as effect on cell growth at 10 uM incubated for 48 hrs by sulforhodamine B assay
ACHN = experiment: Cytotoxicity against human ACHN cells assessed as effect on cell growth at 10 uM incubated for 48 hrs by sulforhodamine B assay
IGROV-1 = experiment: Cytotoxicity against human IGROV1 cells assessed as effect on cell growth at 10 uM incubated for 48 hrs by sulforhodamine B assay; conditions: igrov-1, 48 h
HCT-15 = experiment: Cytotoxicity against human HCT15 cells assessed as effect on cell growth at 10 uM incubated for 48 hrs by sulforhodamine B assay; conditions: hct-15, 48 h
NCI-H23 = experiment: Cytotoxicity against human NCI-H23 cells assessed as effect on cell growth at 10 uM incubated for 48 hrs by sulforhodamine B assay; conditions: nci-h23, 48 h
OVCAR-4 = experiment: Cytotoxicity against human OVCAR4 cells assessed as effect on cell growth at 10 uM incubated for 48 hrs by sulforhodamine B assay; conditions: ovcar-4, 48 h
M14 = experiment: Cytotoxicity against human M14 cells assessed as effect on cell growth at 10 uM incubated for 48 hrs by sulforhodamine B assay; conditions: m14, 48 h

Measured: Activity

CN(Cc1ccccc1)C(=O)[C@@H]1CCC(=O)N1Cc1ccc(Cl)cc1Cl
Non-Toxic: all assays above
